Assay results published in patent US8318781B2, “G-protein-conjugated receptor agonist” (Japan Science and Technology Agency, priority 2007, dated 2012).

Assays:
Format in all cases: cell-based
human GPR40 (hGPR40) = target: T1, human GPR40 (hGPR40) (Homo sapiens, UniProt O14842); test: Determination of intracellular Ca2+ concentration (FLIPR), cell line TXGPR40; settings: for EC50 / [Ca^2+]/GPR40 10 μM (ratio vs. LA): TXGPR40 cells; for EC50: maximum fluorescence intensity vs ligand concentration, read-out: [Ca^2+]/GPR40 pEC50 (converted); for agonistic activity for GPR40 (in words): cells in which GPR40 has been transgenically expressed; for [Ca^2+]/GPR40 10 μM (ratio vs. LA): relative fluorescence intensity vs LA at 10 μM
T1 construct: expressed in transfected cells; doxycycline-inducible expression vector

human GPR120 (hGPR120) [1] = target: T2, human GPR120 (hGPR120) (Homo sapiens, UniProt Q5NUL3); test: Determination of intracellular Ca2+ concentration (FLIPR), cell line GPR120/Flp-in; settings: GPR120/Flp-in cells; for EC50: maximum fluorescence intensity vs ligand concentration, read-out: [Ca^2+]/GPR120/Flp-In pEC50 (converted); for [Ca^2+]/GPR120/Flp-In 10 μM (ratio vs. LA): relative fluorescence intensity vs LA at 10 μM
T2 construct: expressed in transfected cells; doxycycline-inducible expression vector
T2 sequence (Q5NUL3 1-361): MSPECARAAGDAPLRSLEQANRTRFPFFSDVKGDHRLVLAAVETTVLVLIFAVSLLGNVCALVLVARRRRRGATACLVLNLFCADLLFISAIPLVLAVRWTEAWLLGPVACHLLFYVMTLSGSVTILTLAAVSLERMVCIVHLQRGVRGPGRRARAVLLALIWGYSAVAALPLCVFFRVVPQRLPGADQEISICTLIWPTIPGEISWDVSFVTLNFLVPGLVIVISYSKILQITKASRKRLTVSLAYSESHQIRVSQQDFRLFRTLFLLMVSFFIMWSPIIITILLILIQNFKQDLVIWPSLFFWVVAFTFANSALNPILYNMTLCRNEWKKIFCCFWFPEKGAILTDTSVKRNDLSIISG

human GPR120 (hGPR120) [2] = target: T2, human GPR120 (hGPR120); test: Determination of intracellular Ca2+ concentration (FLIPR), cell line TXGPR120; settings: for selectivity between GPR40 and GPR120 (in words), from Tables 3 and 4: GPR40 versus GPR120, Ca2+ and ERK results; for EC50 / [Ca^2+]/GPR120 10 μM (ratio vs. LA): TXGPR120 cells; for EC50: maximum fluorescence intensity vs ligand concentration, read-out: [Ca^2+]/GPR120 pEC50 (converted); for agonistic activity for hGPR120 (in words): cells in which GPR120 has been transgenically expressed; for [Ca^2+]/GPR120 10 μM (ratio vs. LA): relative fluorescence intensity vs LA at 10 μM

T1 sequence (O14842 whole entry): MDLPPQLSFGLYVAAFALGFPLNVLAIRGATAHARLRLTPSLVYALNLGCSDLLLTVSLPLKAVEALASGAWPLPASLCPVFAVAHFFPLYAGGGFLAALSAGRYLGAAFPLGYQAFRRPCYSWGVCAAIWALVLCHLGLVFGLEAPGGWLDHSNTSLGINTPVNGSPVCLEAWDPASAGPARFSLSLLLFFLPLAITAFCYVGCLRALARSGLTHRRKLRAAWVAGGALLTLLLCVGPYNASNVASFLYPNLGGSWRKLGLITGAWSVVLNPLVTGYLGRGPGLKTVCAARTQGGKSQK

Row | Structure (SMILES) | EC50 (human GPR40 (hGPR40)) [µM] | agonistic activity for GPR40 (in words) (human GPR40 (hGPR40)) | [Ca^2+]/GPR40 10 μM (ratio vs. LA) (human GPR40 (hGPR40)) | EC50 (human GPR120 (hGPR120) [1]) [µM] | [Ca^2+]/GPR120/Flp-In 10 μM (ratio vs. LA) (human GPR120 (hGPR120) [1]) | selectivity between GPR40 and GPR120 (in words), from Tables 3 and 4 (human GPR120 (hGPR120) [2]) | EC50 (human GPR120 (hGPR120) [2]) [µM] | agonistic activity for hGPR120 (in words) (human GPR120 (hGPR120) [2]) | [Ca^2+]/GPR120 10 μM (ratio vs. LA) (human GPR120 (hGPR120) [2])
1 | O=C(O)CCCc1ccc(OCCN(c2ccccc2)c2nccs2)cc1 [NCG46] | 21.4 | showed a specific reactivity | 0.30 | 1.66 | 1.06 | acting relatively mildly for GPR40 but acting strongly for GPR120 | 5.25 | exhibit a similar effect | 1.60
2 | CN(C)c1ccc(N(CCOc2ccc(CCCC(=O)O)cc2)c2ccccn2)cc1 [NCG54] | 24 | showed a specific reactivity | 0.07 | 2.4 | 0.92 | acting relatively mildly for GPR40 but acting strongly for GPR120 | 15.8 | exhibit a similar effect | 0.66
